Assay results published in patent publication US8293729B2 (Boehringer Ingelheim International GmbH, priority 2009, dated 2012).
Where two headings read alike, the source gives them in different places.

What was measured:
male ZDF rats = experiment: In vivo OGTT (oral glucose tolerance test) in Sprague Dawley or Zucker Diabetic Fatty rats; parameters: species or system rat; conditions: nine week old male ZDF rats, 30 mg/kg p.o. 30 minutes prior to glucose bolus, 2 hrs post glucose bolus
Description: Nine to 13 week old Male Sprague Dawley rats weighing 250 g-350 g or 9 week old male Zucker Diabetic Fatty rats weighing 300 g-450 g were fasted overnight for 16 hours. At time zero, blood was collected using the tail-nick method and glucose was measured with a glucometer (Bayer HealthCare) Animals then immediately received either vehicle (80% Labrasol, Gattefossé, France) or 3, 10, or 30 mg/kg GPR119 agonist (p.o., volume 2 mL/kg). Thirty minutes later blood glucose was again measured preceding the administration of a glucose bolus (p.o. 2 g/kg, volume 6 mL/kg). Blood glucose was then determined at 10, 20, 30, 60, 90, 120, and 180 minutes post glucose bolus or 20, 40, 60, 80, 100, and 120 minutes past glucose bolus.
Nine week old male ZDF rats were dosed with either 30 mg/kg of Compound 2-35 or 30 mg/kg of Compound 8-1 30 minutes prior to administration of the glucose bolus.

human GPR119 receptor = molecular target: T1, human GPR119 receptor (Homo sapiens, UniProt Q8TDV5, S329A/T327A); experiment: cAMP assay (LANCE cAMP-384) in HEK293 cells stably expressing mutant human GPR119 receptor; assay type: cell-based
T1 construct: N-terminal leader […]; expressed in transfected cells
T1 sequence (Q8TDV5 with tags, fused parts or gaps T327A/S329A): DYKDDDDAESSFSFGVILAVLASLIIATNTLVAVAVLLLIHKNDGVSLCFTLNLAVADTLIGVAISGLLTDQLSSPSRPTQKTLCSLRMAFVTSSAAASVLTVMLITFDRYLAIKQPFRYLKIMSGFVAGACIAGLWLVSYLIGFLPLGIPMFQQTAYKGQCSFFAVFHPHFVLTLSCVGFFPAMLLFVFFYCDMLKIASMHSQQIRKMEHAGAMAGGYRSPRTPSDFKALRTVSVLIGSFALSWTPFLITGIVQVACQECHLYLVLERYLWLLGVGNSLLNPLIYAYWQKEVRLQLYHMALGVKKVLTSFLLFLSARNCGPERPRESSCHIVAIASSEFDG
Summary of the method: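 HEK293 cells stably expressing human GPR119 (T327A/S329A, modified N-terminus), 1000 cells/well, exposed to compound for 20 min at 37° C. cAMP quantified by LANCE TR-FRET against a standard curve; EC50 from 12 points, 30 μM to 100 pM, or % stimulation at 10 μM.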

[1] = cAMP accumulation, HEK293 cells stably expressing mutant human GPR119, read-out: EC50
[2] = the 43rd table, compounds 75-1 to 75-38, read-out: EC50
[3] = the 36th table, compounds 66-1 to 66-51, read-out: EC50
[4] = the 19th table, unit inferred, read-out: EC 50
[5] = the 37th table, compounds 66-52 to 66-64, read-out: EC50

SMILES: CNC(=O)c1cc(F)c(N2CCC(=NOC3CCN(C(=O)OC(C)C)CC3)CC2)cc1F [Example 2-35]
- reduction of glucose excursion compared to vehicle (glucose area under the curve) (male ZDF rats): 75%
- EC50 (human GPR119 receptor; EC50, cAMP accumulation, HEK293 cells stably expressing mutant human GPR119): 34 nM

SMILES: CC(C)OC(=O)N1CCC(ON=C2CCN(c3cc(F)c([C@@H](C)N)cc3F)CC2)CC1 [Example 8-1, 4-{1-[4-((R)-1-Amino-ethyl)-2,5-difluoro-phenyl]-piperidin-4-ylideneaminooxy}-piperidine-1-carboxylic acid isopropyl ester]
- reduction of glucose excursion compared to vehicle (glucose area under the curve) (male ZDF rats): 70%
- EC50 (human GPR119 receptor; [1]): 538 nM

SMILES: CC(C)OC(=O)N1CCC(ON=C2CCN(c3cc(F)c(CC(=O)NCCN(C)C)cc3F)CC2)CC1 [Example 75-1, 4-(1-{4-[(2-dimethylamino-ethylcarbamoyl)-methyl]-2,5-difluoro-phenyl}-piperidin-4-ylideneaminooxy)-piperidine-1-carboxylic acid isopropyl ester]
- EC50 (human GPR119 receptor; [2]): 254 nM

SMILES: CC(C)OC(=O)N1CCC(ON=C2CCN(c3cc(F)c(CC(=O)NCC4CCCNC4)cc3F)CC2)CC1 (centres unmarked) [Example 75-23]
- EC50 (human GPR119 receptor; [2]): 380 nM

SMILES: CCOC(=O)c1ccc(N2CCC(ON=C3CCN(c4ccc(S(C)(=O)=O)cc4F)CC3)CC2)nc1 [Example 63-26]
- EC50 (human GPR119 receptor; the 32nd table, read-out: EC50): > 10000 nM

SMILES: CS(=O)(=O)c1ccc(N2CCC(=NOC3CCN(Cc4ccccc4C#N)CC3)CC2)c(F)c1 [Example 66-19]
- EC50 (human GPR119 receptor; [3]): > 10000 nM

SMILES: CS(=O)(=O)c1ccc(N2CCC(=NOC3CCN(CC(=O)Oc4ccccc4)CC3)CC2)c(F)c1 [Example 65-6]
- EC50 (human GPR119 receptor; the 34th table, compounds 65-1 to 65-24, read-out: EC50): 854 nM

SMILES: CC(=O)Nc1cc(F)c(N2CCC(=NOC3CCN(C(=O)OC(C)C)CC3)CC2)cc1F [Example 35-1, 4-[1-(4-Acetylamino-2,5-difluoro-phenyl)-piperidin-4-ylideneaminooxy]-piperidine-1-carboxylic acid isopropyl ester]
- EC50 (human GPR119 receptor; [1]): 17 nM

SMILES: CC#CCOC(=O)N1CCC(ON=C2CCN(c3ccc(S(C)(=O)=O)cc3F)CC2)CC1 [Example 64-4]
- EC50 (human GPR119 receptor; the 33rd table, read-out: EC50): 152 nM

SMILES: CCc1cnc(N2CCC(ON=C3CCN(c4cc(F)c(C(=O)NCC5CCCN5C)cc4F)CC3)CC2)nc1 (centres unmarked) [Example 29-138]
- EC50 (human GPR119 receptor; [4]): 185 nM

SMILES: CS(=O)(=O)c1ccc(N2CCC(=NOC3CCN(C(=O)O[C@H]4CNC(=O)C4)CC3)CC2)c(F)c1 [Example 64-11]
- EC50 (human GPR119 receptor; the 33rd table, read-out: EC50): > 10000 nM

SMILES: CCc1ccc(CN2CCC(ON=C3CCN(c4ccc(S(C)(=O)=O)cc4F)CC3)CC2)cc1 [Example 66-27]
- EC50 (human GPR119 receptor; [3]): 109 nM

SMILES: CCN(CC)CCCOC(=O)N1CCC(ON=C2CCN(c3ccc(S(C)(=O)=O)cc3F)CC2)CC1 [Example 64-29]
- EC50 (human GPR119 receptor; the 33rd table, read-out: EC50): > 10000 nM

SMILES: Cc1nnnn1Cc1cc(F)c(N2CCC(=NOC3CCN(C(=O)OC(C)C)CC3)CC2)cc1F [Example 14-15]
- EC50 (human GPR119 receptor; [1]): 39 nM

SMILES: CC(C)OC(=O)N1CCC(ON=C2CCN(c3ccc(S(C)(=O)=O)cc3)CC2)CC1 [Example 2-16]
- EC50 (human GPR119 receptor; [1]): 328 nM

SMILES: CC(C)OC(=O)N1CCC(ON=C2CCN(c3cc(F)c(CS(=O)(=O)C4CC4)cc3F)CC2)CC1 [Example 14-3]
- EC50 (human GPR119 receptor; [1]): 19 nM

SMILES: COc1nc(N2CCC(=NOC3CCN(C(=O)OC(C)C)CC3)CC2)ncc1Br [Example 2-56]
- EC50 (human GPR119 receptor; [1]): > 10000 nM

SMILES: Cc1ccc(-c2cc(F)c(N3CCC(=NOC4CCN(C(=O)OC(C)C)CC4)CC3)cc2F)cn1 [Example 27-30]
- EC50 (human GPR119 receptor; [1]): 435 nM

SMILES: COCCNC(=O)c1cc(F)c(N2CCC(=NOC3CCN(C(=O)OC(C)C)CC3)CC2)cc1F [Example 29-12]
- EC50 (human GPR119 receptor; the 15th table, read-out: EC50): 12 nM

SMILES: CC(C)OC(=O)N1CCC(ON=C2CCN(c3ncc(-n4cccn4)cn3)CC2)CC1 [Example 51-5]
- activation at 10 µM (human GPR119 receptor; HEK293, 20 min, 10 μM, the 28th table, read-out: stimulation in % at 10 μM): 96%

SMILES: CC(C)OC(=O)N1CCC(ON=C2CCN(c3ccc(S(C)(=O)=O)cc3F)CC2)CC1 [Example 2-1, 4-[1-(2-Fluoro-4-methanesulfonyl-phenyl)-piperidin-4-ylideneaminooxy]-piperidine-1-carboxylic acid isopropyl ester]
- EC50 (human GPR119 receptor; [1]): 47 nM

SMILES: CSc1nc(N2CCC(=NOC3CCN(C(=O)OC(C)C)CC3)CC2)ncc1Br [Example 2-55]
- EC50 (human GPR119 receptor; [1]): > 10000 nM

SMILES: CC(C)OC(=O)N1CCC(ON=C2CCN(c3cc(F)c(CN4CCCC4)cc3F)CC2)CC1 [Example 5-1, 4-[1-(2,5-Difluoro-4-pyrrolidin-1-ylmethyl-phenyl)-piperidin-4-ylideneaminooxy]-piperidine-1-carboxylic acid isopropyl ester]
- EC50 (human GPR119 receptor; [1]): 7830 nM

SMILES: CC(C)OC(=O)N1CCC(ON=C2CCN(c3cc(F)c(-c4nccn4C)cc3F)CC2)CC1 [Example 27-16]
- EC50 (human GPR119 receptor; [1]): 5550 nM

SMILES: CCc1cnc(N2CCC(ON=C3CCN(c4cc(F)c(C(=O)NCC5CCNCC5)cc4F)CC3)CC2)nc1 [Example 29-128]
- EC50 (human GPR119 receptor; [4]): 70 nM

SMILES: CS(=O)(=O)c1ccc(N2CCC(=NOC3CCN(c4nccs4)CC3)CC2)c(F)c1 [Example 63-7]
- EC50 (human GPR119 receptor; the 32nd table, read-out: EC50): 447 nM

SMILES: Cc1ccc(-c2cc(F)c(N3CCC(=NOC4CCN(C(=O)OC(C)C)CC4)CC3)cc2F)nc1 [Example 27-26]
- EC50 (human GPR119 receptor; [1]): 861 nM

SMILES: CC(C)OC(=O)N1CCC(ON=C2CCN(c3cc(F)c(CC(=O)N4CCCCC4CN4CCCCC4)cc3F)CC2)CC1 (centres unmarked) [Example 75-32]
- EC50 (human GPR119 receptor; [2]): 300 nM

SMILES: CC(C)OC(=O)N1CCC(ON=C2CCN(c3ccc(C=O)cc3Cl)CC2)CC1 [Example 2-31]
- EC50 (human GPR119 receptor; [1]): 1250 nM

SMILES: CCc1cnc(N2CCC(ON=C3CCN(c4cc(F)c(C(=O)N5CC[C@@H](N)C5)cc4F)CC3)CC2)nc1 [Example 29-118]
- EC50 (human GPR119 receptor; [4]): 201 nM

SMILES: CC(C)OC(=O)N1CCC(ON=C2CCN(c3nc(Cl)c(CO)nc3Cl)CC2)CC1 [Example 56-1, 4-[1-(3,6-Dichloro-5-hydroxymethyl-pyrazin-2-yl)-piperidin-4-ylideneaminooxy]-piperidine-1-carboxylic acid isopropyl ester]
- EC50 (human GPR119 receptor; [1]): 35 nM

SMILES: CS(=O)(=O)c1cc(F)c(N2CCC(=NOC3CCN(Cc4ccc(-c5ccccn5)cc4)CC3)CC2)cc1F [Example 66-52]
- EC50 (human GPR119 receptor; [5]): 926 nM

SMILES: CS(=O)(=O)c1ccc(N2CCC(=NOC3CCN(C(=O)OC4CNC4)CC3)CC2)c(F)c1 [Example 64-33]
- EC50 (human GPR119 receptor; the 33rd table, read-out: EC50): > 10000 nM

SMILES: CCc1cnc(N2CCC(ON=C3CCN(c4cc(F)c(CC(=O)N5CC[C@H](CN)C5)cc4F)CC3)CC2)nc1 [Example 77-9]
- EC50 (human GPR119 receptor; the 44th table, compounds 77-1 to 77-14, read-out: EC50): 8 nM

SMILES: CCCCc1ccc(CN2CCC(ON=C3CCN(c4cc(F)c(S(C)(=O)=O)cc4F)CC3)CC2)cc1 [Example 66-57]
- EC50 (human GPR119 receptor; [5]): 29 nM

SMILES: CC(C)OC(=O)N1CCC(ON=C2CCN(c3nccnc3Cl)CC2)CC1 [Example 2-10]
- EC50 (human GPR119 receptor; [1]): 363 nM
